Measurements as given in publication PMC10447463, “Data-mining unveils structure–property–activity correlation of viral infectivity enhancing self-assembling peptides” (Nature Communications, 2023).
Like-named read-outs stand apart in the source and are kept apart here.

What was measured:
[1] = Zeta-potential measurement; format: physicochemical
In short: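 Dissolve peptide from DMSO (10 mg/mL stock) into PBS pH 7.4 to 1 mg/mL. Incubate 1 d, RT. Dilute in 1 mM KCl just before reading. Derive zeta potential from mobility (Smoluchowski).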

[2] = test system: HIV-1 infection of TZM-bl cells; assay: HIV-1 infectivity enhancement assay, β-galactosidase luminescence; format: cell-based; conditions: for Rel-EFC / Log10 Infection Rel EFC: 1.3 µM peptide; for Rel-EFC: infection relative to EF-C (QCKIKQIINMWQ = 1); for Log10 Infection Rel EFC: log10 of infection relative to EF-C; for Log Infectivity: Log10 infection relative to EF-C, TZM-bl cells, asymmetric std dev errors; for Log10 Infection Rel EF-C: HIV-1 infection of TZM-bl cells; for Abs. Inf.: absolute infection signal, HIV-1 on TZM-bl cells, β-galactosidase luminescence; for Log10 Inf. rel. to EF-C: log10 of HIV-1 infection of TZM-bl cells relative to EF-C (EF-C = 0); for Abs. Infection at 0.26 µM / Abs. Infection at 1.3 µM: mean of n = 3, Figure 4A; for Log10 of Rel to EFC (Feb2021): Log10 of infection relative to EF-C, all peptides of FigS16
[3] = Turbidity, derived count rate of scattered light; format: physicochemical; conditions: for Count Rate / kcps: derived count rate of scattered light at 633 nm, 173°, from zeta-potential measurement, 0.1 mg/mL in 1 mM KCl after 1 d at 1 mg/mL in PBS, turbidity / microscopic aggregation, mean of triplicate
In short: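 One-day room-temperature aggregation at 1 mg/mL in PBS (pH 7.4) preceded measurement; samples then went into 1 mM KCl. Triplicates per sample, two independent experiments averaged.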

[4] = Turbidity, derived count rate of scattered light; format: physicochemical; conditions: for Count Rate: derived count rate of scattered light (turbidity); for Log10 Count Rate: turbidity, derived count rate of scattered light, data of Figure 2D
[5] = zeta-potential of peptide, source data of Figure 2C
[6] = zeta-potential of the peptide assemblies, mean, Figure 3A source data
[7] = Fig. S7 panel A (plotted against β-sheet content)
[8] = Log10 of infection rate relative to EF-C, Figure 3A source data
[9] = infection rate relative to EF-C, log10, data of Figure 2D
[10] = infection rate relative to EF-C, log10, source data of Figure 2C
[11] = Log10 of derived count rate of scattered light (turbidity)
[12] = turbidity, Log10 of derived count rate of scattered light, Figure 3A source data
[13] = Fig. S7 panel B (plotted against CR), rounded to two decimals
[14] = turbidity, log10 of derived count rate of scattered light
[15] = logarithm of count rate in kcps

Substance | Zeta-Potential / mV [1, 5] | Zeta-Potential / mV [1, 6] | Rel-EFC [2] | Log10 Infection Rel EFC [2] | Log Infectivity [2, 7] | Log10 Infection Rel EF-C [2, 8] | Log10 Infection Rel EF-C [2, 9] | Log10 Infection Rel EF-C [2, 10] | Log10 Count Rate [3, 11] | Count Rate / kcps [3] | Log10 Count Rate [3, 12] | Count Rate [4] | Log10 Count Rate [4] | Zeta-Pot. [1] | Log Infectivity [2, 13] | Abs. Inf. [2] | Log10 Inf. rel. to EF-C [2] | Log10 Count Rate [3, 14] | Log10 Count Rate [3, 15] | other results
CEFEFQF | -10.825 mV | -13.7 mV | 0,01 | -2,28 | -2.283 | -2.28 | -2.283 | -2.283 | 2.565 | 367 kcps | 2.565 | 367.4 | 2.565 | – | – | – | – | – | – | Zeta-Pot. ([1]; zeta potential of peptide assemblies): -13.7; Log10 Count Rate ([3]; log10 of derived count rate of scattered light (turbidity)): 2.565
CEIEIQI | -24.43 mV | -26.1 mV | 0,03 | -1,55 | -1.554 | -1.55 | -1.554 | -1.554 | 1.716 | 52 kcps | 1.716 | 51.97 | 1.716 | -26.1 | -1.55 | 633.3 | -1.554 | 1.716 | – | –
CETMYDKILKNLSRSR | -1.487 mV | 0.41 mV | 0,02 | -1,72 | -1.716 | -1.72 | -1.716 | -1.716 | 3.041 | 1099 kcps | 3.041 | 1099 | 3.041 | 0.41 | -1.72 | 363.3 | -1.716 | 3.041 | – | –
CHLHLQL | -10.37 mV | -12.27 mV | 0,1 | -1,01 | -1.008 | -1.01 | -1.008 | -1.008 | 3.062 | 1155 kcps | 3.062 | 1155 | 3.062 | -12.27 | -1.01 | 2934 | -1.008 | 3.062 | 3.062 | Abs. Infection at 0.26 µM ([2]; peptide 0.26 µM): 572.2; Infect 1 0.26 µM ([2]; peptide 0.26 µM, replicate 1, absolute infection signal, Figure 4A): 545.6; Infect 2 0.26 µM ([2]; peptide 0.26 µM, replicate 2, absolute infection signal, Figure 4A): 488.9; Infect 3 0.26 µM ([2]; peptide 0.26 µM, replicate 3, absolute infection signal, Figure 4A): 682.2; Abs. Infection at 1.3 µM ([2]; peptide 1.3 µM): 2934; Infect 1 .3 µM ([2]; peptide 1.3 µM, replicate 1, absolute infection signal, Figure 4A): 3586; Infect 2 1.3µM ([2]; peptide 1.3 µM, replicate 2, absolute infection signal, Figure 4A): 2346; Infect 3 1.3 µM ([2]; peptide 1.3 µM, replicate 3, absolute infection signal, Figure 4A): 2872
CKFC | -2.077 mV | -19.89 mV | 0,01 | -1,96 | -1.959 | -1.96 | -1.959 | -1.959 | 2.371 | 235 kcps | 2.371 | 235.1 | 2.371 | -19.89 | -1.96 | 240 | -1.959 | 2.371 | – | –
CKFKFQF | 17.4 mV | 19.73 mV | 1,23 | 0,09 | 0.09083 | 0.09 | 0.09083 | 0.09083 | 3.725 | 5303 kcps | 3.725 | 5303 | 3.725 | 19.73 | 0.09 | 20066.66667 | 0.09083 | 3.725 | 3.725 | Zeta pot. / mV ([1]; zeta potential of the peptide assemblies): 19.73 mV; Log10 of Rel to EFC (Feb2021) [2]: 0.09; Abs. Infection at 0.26 µM ([2]; peptide 0.26 µM): 5684; Abs. Infection at 1.3 µM ([2]; peptide 1.3 µM): 20066.66667; Count Rate ([3]; T0, mean of n = 3): 719.1 kcps; Count Rate ([3]; T0, replicate 2): 718.1 kcps; Count Rate ([3]; T0, replicate 3): 875.1 kcps; Count Rate ([3]; T2m, mean of n = 3): 801.2 kcps; Count Rate ([3]; T2m, replicate 1): 2097 kcps; Count Rate ([3]; T2m, replicate 2): 115.2 kcps; Count Rate ([3]; T2m, replicate 3): 191.5 kcps; Count Rate ([3]; T1d, mean of n = 3): 1387.9 kcps; Count Rate ([3]; T1d, replicate 1): 43.1 kcps; Count Rate ([3]; T1d, replicate 2): 2192.2 kcps; Count Rate ([3]; T1d, replicate 3): 1928.4 kcps
CKFKFQFNM | 14.97 mV | 15.13 mV | 1,24 | 0,09 | 0.09417 | 0.09 | 0.09417 | 0.09417 | 3.347 | 2224 kcps | 3.347 | 2224 | 3.347 | 15.13 | 0.09 | 28183.33333 | 0.09417 | 3.347 | 3.347 | Log10 of Rel to EFC (Feb2021) [2]: 0.09
